Results on 16 compounds are retold here after patent US20230278995A1, “1,3,4-OXADIAZOLE DERIVATIVE COMPOUNDS AS HISTONE DEACETYLASE 6 INHIBITOR, AND THE PHARMACEUTICAL COMPOSITION COMPRISING THE SAME” (CHONG KUN DANG PHARMACEUTICAL CORP., priority 2020, published 2023).

Assay [1] addresses T1, human recombinant HDAC1 (Homo sapiens, UniProt Q13547).
T1 construct: purchased Enzo Life Sciences, Inc. BML-SE456
The assay is described as follows: HDAC enzyme activity inhibition assay (HDAC Fluorimetric Drug Discovery Kit), HDAC1. In kind it is biochemical. The conditions noted are these: human recombinant HDAC1, Fluor de Lys-SIRT1 substrate, 30° C. 60 minutes. A digest of the protocol:
(§1)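 Recombinant human HDAC1 or HDAC6 (0.3 μg) reacted with 10 μM Fluor de Lys-SIRT1 substrate at 30 °C for 60 min. Developer added for 30 min, then fluorescence read at Ex 360/Em 460.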

Assay [2] has as its target T2, human recombinant HDAC6 (Homo sapiens, UniProt Q9UBN7).
T2 construct: purchased Calbiochem Inc. 382180
T2 sequence (Q9UBN7 1-1215): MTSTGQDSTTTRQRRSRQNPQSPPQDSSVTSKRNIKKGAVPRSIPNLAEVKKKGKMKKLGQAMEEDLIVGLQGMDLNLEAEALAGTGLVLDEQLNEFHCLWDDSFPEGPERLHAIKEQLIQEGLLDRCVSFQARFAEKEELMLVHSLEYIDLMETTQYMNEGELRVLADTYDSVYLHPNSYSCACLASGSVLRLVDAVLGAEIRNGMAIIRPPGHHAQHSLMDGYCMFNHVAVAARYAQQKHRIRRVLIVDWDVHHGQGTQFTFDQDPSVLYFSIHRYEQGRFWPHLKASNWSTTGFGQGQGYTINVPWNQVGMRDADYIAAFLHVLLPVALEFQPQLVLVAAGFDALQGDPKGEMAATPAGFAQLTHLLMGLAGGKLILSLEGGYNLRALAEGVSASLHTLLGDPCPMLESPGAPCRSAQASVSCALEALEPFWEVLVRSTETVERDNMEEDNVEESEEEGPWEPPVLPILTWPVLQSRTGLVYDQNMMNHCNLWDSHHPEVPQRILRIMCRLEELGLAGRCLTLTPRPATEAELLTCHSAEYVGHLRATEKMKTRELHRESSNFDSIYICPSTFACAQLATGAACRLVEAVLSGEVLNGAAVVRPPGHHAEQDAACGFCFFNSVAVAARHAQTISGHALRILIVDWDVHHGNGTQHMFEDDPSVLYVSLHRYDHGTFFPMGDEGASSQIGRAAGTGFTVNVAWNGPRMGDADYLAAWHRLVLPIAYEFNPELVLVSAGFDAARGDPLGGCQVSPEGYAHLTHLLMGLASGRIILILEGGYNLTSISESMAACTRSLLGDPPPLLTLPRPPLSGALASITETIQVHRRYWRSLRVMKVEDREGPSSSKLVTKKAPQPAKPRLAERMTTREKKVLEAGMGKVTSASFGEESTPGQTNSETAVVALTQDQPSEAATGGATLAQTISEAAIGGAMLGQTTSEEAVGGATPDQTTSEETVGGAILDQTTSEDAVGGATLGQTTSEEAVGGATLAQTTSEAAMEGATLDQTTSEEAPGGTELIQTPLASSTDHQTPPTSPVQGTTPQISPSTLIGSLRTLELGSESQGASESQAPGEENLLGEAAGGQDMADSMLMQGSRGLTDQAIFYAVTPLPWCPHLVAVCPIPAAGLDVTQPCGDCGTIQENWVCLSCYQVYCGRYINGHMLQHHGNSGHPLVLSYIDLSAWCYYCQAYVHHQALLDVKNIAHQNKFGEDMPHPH
The assay is described as follows: HDAC enzyme activity inhibition assay (HDAC Fluorimetric Drug Discovery Kit), HDAC6. In kind it is biochemical. To be noted: for HDAC6 selectivity (fold): HDAC1 vs HDAC6; for IC50: human recombinant HDAC6, same protocol as HDAC1. A digest of the protocol:
as §1

In general, IC50 refers to the concentration at which inhibition is half-maximal.

T1 sequence (Q13547 whole entry): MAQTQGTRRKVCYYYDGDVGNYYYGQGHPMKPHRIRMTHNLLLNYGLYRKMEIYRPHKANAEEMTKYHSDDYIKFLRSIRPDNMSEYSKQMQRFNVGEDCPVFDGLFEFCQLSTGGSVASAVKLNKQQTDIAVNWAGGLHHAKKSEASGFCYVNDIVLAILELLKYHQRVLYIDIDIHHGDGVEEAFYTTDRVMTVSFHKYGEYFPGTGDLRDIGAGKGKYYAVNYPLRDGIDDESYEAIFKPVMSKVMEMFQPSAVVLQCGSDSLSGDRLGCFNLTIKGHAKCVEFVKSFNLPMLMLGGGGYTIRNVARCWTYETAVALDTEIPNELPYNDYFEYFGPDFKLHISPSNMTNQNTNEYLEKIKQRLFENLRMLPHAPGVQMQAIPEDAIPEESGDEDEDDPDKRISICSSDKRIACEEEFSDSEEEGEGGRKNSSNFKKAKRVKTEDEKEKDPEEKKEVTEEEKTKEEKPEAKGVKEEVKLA

With `O=C(N(Cc1ccc(-c2nnc(C(F)F)o2)cn1)c1cccc(F)c1)C1(F)CN(C2CN(C3CCOC3)C2)C1` (stereo not drawn) [Compound 3397, N-((5-(5-(difluoromethyl)-1,3,4-oxadiazol-2-yl)pyridin-2-yl)methyl)-3-fluoro-N-(3-fluorophenyl)-1′-(tetrahydrofuran-3-yl)-[1,3′-biazetidine]-3-carboxamide], the IC50 in assay [1] was found to be 23700 nM. Also, in assay [2], the “HDAC6 selectivity (fold)” value was 1,022 fold and the IC50 amounted to 23.2 nM.

Turning to `O=C(N(Cc1ccc(-c2nnc(C(F)F)o2)cn1)c1cccc(F)c1)C1(F)CN(C2CN(C3CCCCC3)C2)C1` [Compound 3398, 1′-cyclohexyl-N-((5-(5-(difluoromethyl)-1,3,4-oxadiazol-2-yl)pyridin-2-yl)methyl)-3-fluoro-N-(3-fluorophenyl)-[1,3′-biazetidine]-3-carboxamide], the half-inhibitory concentration (IC50) in assay [1] is 27500 nM. For the same compound, in assay [2], the “HDAC6 selectivity (fold)” value is 1,374 fold and the half-inhibitory concentration (IC50) was 20 nM.

Regarding `O=C(N(Cc1ccc(-c2nnc(C(F)F)o2)cn1)c1cccc(F)c1)C1(F)CN(C2CN(C3CCOCC3)C2)C1` [Compound 3399, N-((5-(5-(difluoromethyl)-1,3,4-oxadiazol-2-yl)pyridin-2-yl)methyl)-3-fluoro-N-(3-fluorophenyl)-1′-(tetrahydro-2H-pyran-4-yl)-[1,3′-biazetidine]-3-carboxamide], the IC50 in assay [1] stood at 31500 nM. Further, in assay [2], the “HDAC6 selectivity (fold)” value was 1,569 fold and the IC50 was determined as 20.1 nM.

For the compound `CCN1CCC(N2CC(F)(C(=O)N(Cc3ccc(-c4nnc(C(F)F)o4)cn3)c3cccc(F)c3)C2)CC1` [Compound 3400, N-((5-(5-(difluoromethyl)-1,3,4-oxadiazol-2-yl)pyridin-2-yl)methyl)-1-(1-ethylpiperidin-4-yl)-3-fluoro-N-(3-fluorophenyl)azetidine-3-carboxamide], the half-maximal inhibitory concentration (IC50) in assay [1] was found to be 36600 nM; in assay [2] it was 21.6 nM. For the same compound, in assay [2], the “HDAC6 selectivity (fold)” value is on record as 1,695 fold.

`CCCN1CCC(N2CC(F)(C(=O)N(Cc3ccc(-c4nnc(C(F)F)o4)cn3)c3cccc(F)c3)C2)CC1` [Compound 3401, N-((5-(5-(difluoromethyl)-1,3,4-oxadiazol-2-yl)pyridin-2-yl)methyl)-3-fluoro-N-(3-fluorophenyl)-1-(1-propylpiperidin-4-yl)azetidine-3-carboxamide]: in assay [1], the IC50 worked out at 44500 nM. In assay [2], the “HDAC6 selectivity (fold)” value is 1,951 fold and the IC50 turned out to be 22.8 nM.

Turning to `CCCCN1CCC(N2CC(F)(C(=O)N(Cc3ccc(-c4nnc(C(F)F)o4)cn3)c3cccc(F)c3)C2)CC1` [Compound 3402, 1-(1-butylpiperidin-4-yl)-N-((5-(5-(difluoromethyl)-1,3,4-oxadiazol-2-yl)pyridin-2-yl)methyl)-3-fluoro-N-(3-fluorophenyl)azetidine-3-carboxamide], the IC50 in assay [1] was over 50000 nM; in assay [2], 20.8 nM. Also, in assay [2], the “HDAC6 selectivity (fold)” value was 2,403 fold.

Regarding `CC(C)CN1CCC(N2CC(F)(C(=O)N(Cc3ccc(-c4nnc(C(F)F)o4)cn3)c3cccc(F)c3)C2)CC1` [Compound 3403, N-((5-(5-(difluoromethyl)-1,3,4-oxadiazol-2-yl)pyridin-2-yl)methyl)-3-fluoro-N-(3-fluorophenyl)-1-(1-isobutylpiperidine-4-yl)azetidine-3-carboxamide], the IC50 in assay [1] worked out at 26300 nM. In assay [2], the “HDAC6 selectivity (fold)” value was found to be 911 fold and the IC50 was found to be 28.8 nM.

In the case of `CC(C)N1CCC(N2CC(F)(C(=O)N(Cc3ccc(-c4nnc(C(F)F)o4)cn3)c3cccc(F)c3)C2)CC1` [Compound 3404, N-((5-(5-(difluoromethyl)-1,3,4-oxadiazol-2-yl)pyridin-2-yl)methyl)-3-fluoro-N-(3-fluorophenyl)-1-(1-isopropylpiperidin-4-yl)azetidine-3-carboxamide], in assay [1], the IC50 came to 25400 nM. Also, in assay [2], the “HDAC6 selectivity (fold)” value came out at 773 fold and the concentration for half-maximal inhibition (IC50) is 32.9 nM.

For `O=C(N(Cc1ccc(-c2nnc(C(F)F)o2)cn1)c1cccc(F)c1)C1(F)CN(C2CCN(C3CCC3)CC2)C1` [Compound 3405, 1-(1-cyclobutylpiperidin-4-yl)-N-((5-(5-(difluoromethyl)-1,3,4-oxadiazol-2-yl)pyridin-2-yl)methyl)-3-fluoro-N-(3-fluorophenyl)azetidine-3-carboxamide], in assay [1], the 50% inhibitory concentration (IC50) is 20400 nM. Also, in assay [2], the “HDAC6 selectivity (fold)” value was found to be 771 fold and the IC50 stood at 26.5 nM.

`O=C(N(Cc1ccc(-c2nnc(C(F)F)o2)cn1)c1cccc(F)c1)C1(F)CN(C2CCN(C3COC3)CC2)C1` [Compound 3406, N-((5-(5-(difluoromethyl)-1,3,4-oxadiazol-2-yl)pyridin-2-yl)methyl)-3-fluoro-N-(3-fluorophenyl)-1-(1-(oxetan-3-yl)piperidin-4-yl)azetidine-3-carboxamide]: the 50% inhibitory concentration (IC50) in assay [1] was determined as 26600 nM; in assay [2], 36.2 nM. Moreover, the “HDAC6 selectivity (fold)” value in assay [2] is recorded as 734 fold.

For `O=C(N(Cc1ccc(-c2nnc(C(F)F)o2)cn1)c1cccc(F)c1)C1(F)CN(C2CCN(C3CCCC3)CC2)C1` [Compound 3407, 1-(1-cyclopentylpiperidin-4-yl)-N-((5-(5-(difluoromethyl)-1,3,4-oxadiazol-2-yl)pyridin-2-yl)methyl)-3-fluoro-N-(3-fluorophenyl)azetidine-3-carboxamide], the IC50 in assay [1] was found to be 48000 nM. Besides, in assay [2], the “HDAC6 selectivity (fold)” value is given as 2,581 fold and the IC50 came to 18.6 nM.

Turning to `O=C(N(Cc1ccc(-c2nnc(C(F)F)o2)cn1)c1cccc(F)c1)C1(F)CN(C2CCN(C3CCOC3)CC2)C1` (stereo not drawn) [Compound 3408, N-((5-(5-(difluoromethyl)-1,3,4-oxadiazol-2-yl)pyridin-2-yl)methyl)-3-fluoro-N-(3-fluorophenyl)-1-(1-(tetrahydrofuran-3-yl)piperidin-4-yl)azetidine-3-carboxamide], the half-maximal inhibitory concentration (IC50) in assay [1] was 37000 nM. In assay [2], the “HDAC6 selectivity (fold)” value was 1,135 fold and the IC50 worked out at 32.6 nM.

Take `O=C(N(Cc1ccc(-c2nnc(C(F)F)o2)cn1)c1cccc(F)c1)C1(F)CN(C2CCN(C3CCCCC3)CC2)C1` [Compound 3409, 1-(1-cyclohexylpiperidin-4-yl)-N-((5-(5-(difluoromethyl)-1,3,4-oxadiazol-2-yl)pyridin-2-yl)methyl)-3-fluoro-N-(3-fluorophenyl)azetidine-3-carboxamide]: in assay [1], the half-inhibitory concentration (IC50) was over 50000 nM. In addition, in assay [2], the “HDAC6 selectivity (fold)” value is listed as 1,497 fold and the IC50 was determined as 33.4 nM.

As to `O=C(N(Cc1ccc(-c2nnc(C(F)F)o2)cn1)c1cccc(F)c1)C1(F)CN(C2CCN(C3CCOCC3)CC2)C1` [Compound 3410, N-((5-(5-(difluoromethyl)-1,3,4-oxadiazol-2-yl)pyridin-2-yl)methyl)-3-fluoro-N-(3-fluorophenyl)-1-(1-(tetrahydro-2H-pyran-4-yl)piperidin-4-yl)azetidine-3-carboxamide], the half-inhibitory concentration (IC50) in assay [1] came to 34700 nM. Also, in assay [2], the “HDAC6 selectivity (fold)” value is 1,343 fold and the 50% inhibitory concentration (IC50) was 25.8 nM.

In the case of `CN1CC(F)(C(=O)N(Cc2ccc(-c3nnc(C(F)F)o3)cc2F)c2ccccc2)C1` [Compound 3429, N-(4-(5-(difluoromethyl)-1,3,4-oxadiazol-2-yl)-2-fluorobenzyl)-3-fluoro-1-methyl-N-phenylazetidine-3-carboxamide], the half-inhibitory concentration (IC50) in assay [1] was determined as 30900 nM. Besides, in assay [2], the “HDAC6 selectivity (fold)” value worked out at 421 fold and the half-inhibitory concentration (IC50) was 73.4 nM.

With `CCN1CC(F)(C(=O)N(Cc2ccc(-c3nnc(C(F)F)o3)cc2F)c2ccccc2)C1` [Compound 3430, N-(4-(5-(difluoromethyl)-1,3,4-oxadiazol-2-yl)-2-fluorobenzyl)-1-ethyl-3-fluoro-N-phenylazetidine-3-carboxamide], in assay [1], the half-maximal inhibitory concentration (IC50) is over 50000 nM. For the same compound, in assay [2], the “HDAC6 selectivity (fold)” value came to 624 fold and the IC50 was determined as 80.1 nM.
